Data: ChEMBL document CHEMBL5584239, “Discovery of novel quinoline scaffold selective estrogen receptor degraders (SERDs) for treatment of ER positive breast cancer with enhanced antiproliferative bioactivity through immunogenic cell death (ICD) effects” (Eur J Med Chem, 2024)
The source made the active and inactive calls. The calls are words filed in the database; no cut-off is given here.

Experiments:
MCF7 [1] = assay: Induction of ROS production in human MCF7 cells incubated for 3 to 24 hrs by immunofluorescence analysis; format: functional, cell-based; conditions: time 3-24 hrs
MCF7 [2] = assay: Induction of endoplasmic reticulum stress effect in human MCF7 cells assessed as change in calnexin level at 10 uM incubated for 3 to 24 hrs by Western blot analysis; format: functional, cell-based; conditions: time 3-24 hrs
MCF7 [3] = assay: Induction of immunogenic cell death in human MCF7 cells assessed as ATP release […] at 10 uM; format: functional, cell-based
Uterus = assay: Effect on immature Sprague-Dawley rat uterus assessed as reduction in uterine wet weight at 60 mg/kg, po qd for 2 days by H and E staining based analysis; format: functional, organism-based; conditions: time 2.0 day
[4] = Tmax in rat at 5 mg/kg, iv measured for 1 to 24 hrs by LC-MS analysis; format: ADME, organism-based; conditions: in vivo, time 1-24 hrs
[5] = target: T1, Estrogen receptor (Homo sapiens) (UniProt P03372); assay: Induction of estrogen receptor degradation in human MCF7 cells incubated for 24 hrs by Western blot analysis; format: cell-based; conditions: dose 0.001-10 µM
T1 sequence (whole entry): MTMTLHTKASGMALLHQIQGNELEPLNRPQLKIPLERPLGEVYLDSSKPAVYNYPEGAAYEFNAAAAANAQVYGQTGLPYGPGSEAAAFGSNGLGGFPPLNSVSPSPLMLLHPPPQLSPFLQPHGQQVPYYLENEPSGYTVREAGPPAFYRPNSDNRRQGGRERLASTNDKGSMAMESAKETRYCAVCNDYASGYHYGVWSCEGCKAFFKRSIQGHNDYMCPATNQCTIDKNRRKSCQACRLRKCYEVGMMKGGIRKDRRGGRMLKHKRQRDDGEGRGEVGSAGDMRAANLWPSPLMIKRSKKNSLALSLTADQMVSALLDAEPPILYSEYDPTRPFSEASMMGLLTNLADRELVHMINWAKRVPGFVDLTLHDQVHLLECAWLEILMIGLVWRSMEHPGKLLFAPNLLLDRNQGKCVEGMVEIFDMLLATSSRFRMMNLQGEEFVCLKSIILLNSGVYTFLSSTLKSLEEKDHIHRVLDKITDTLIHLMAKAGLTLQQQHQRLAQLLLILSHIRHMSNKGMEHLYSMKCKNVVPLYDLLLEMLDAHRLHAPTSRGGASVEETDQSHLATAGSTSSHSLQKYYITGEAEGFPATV

[6] = MRT (0 to infinity) in rat at 5 mg/kg, iv measured for 1 to 24 hrs by LC-MS analysis; format: ADME, organism-based; conditions: in vivo, time 1-24 hrs
MCF7 [7] = assay: Antitumor activity against human MCF7 cells xenografted in nude mouse model assessed as reduction in ER level at 60 mg/kg, po administered daily via gavage for 30 days in presence of ribociclib by IHC analysis; format: functional, organism-based; conditions: time 30.0 day
MCF7 [8] = assay: Antitumor activity against human MCF7 cells xenografted in nude mouse model assessed as tumor growth inhibition at 60 mg/kg, po administered daily via gavage for 30 days; format: functional, organism-based; conditions: time 30.0 day
MCF7 [9] = assay: Induction of immunogenic cell death in human MCF7 cells assessed as HMGB1 release from nucleus at 10 uM by FITC staining based flow cytometry; format: functional
[10] = AUC (0 to infinity) in rat at 5 mg/kg, iv measured for 1 to 24 hrs by LC-MS analysis; format: ADME, organism-based; conditions: in vivo, time 1-24 hrs
Ishikawa = assay: Antiproliferative activity against human Ishikawa cells at 20 uM incubated for 3 days by MTT assay relative to control; format: functional; conditions: 72 h, time 3 day
MCF7 [11] = assay: Induction of immunogenic cell death in human MCF7 cells assessed as CRT translocation at 10 uM by fluorescence microscopy; format: functional, cell-based
MCF7 [12] = assay: Induction of immunogenic cell death in human MCF7 cells assessed as HMGB1 release from nucleus at 10 uM by fluorescence microscopy; format: functional, cell-based
MCF7 [13] = assay: Induction of ROS production in human MCF7 cells measured after 6 to 24 hrs by flow cytometry; format: functional, cell-based; conditions: time 6-24 hrs
[14] = MRT (0 to t) in rat at 5 mg/kg, iv measured for 1 to 24 hrs by LC-MS analysis; format: ADME, organism-based; conditions: in vivo, time 1-24 hrs
MCF7 [15] = assay: Antiproliferative activity against human MCF7 cells incubated for 5 days by MTT assay; format: functional, cell-based; conditions: MCF7, 120 h
MCF7 [16] = assay: Induction of endoplasmic reticulum stress effect in human MCF7 cells assessed as change in GRP78 level at 10 uM incubated for 3 to 24 hrs by Western blot analysis; format: functional, cell-based; conditions: time 3-24 hrs
[17] = Toxicity in nude mouse model xenografted with human MCF7 cells assessed as morphological change in liver at 60 mg/kg, po administered daily via gavage for 30 days by H and E staining based analysis; format: organism-based; conditions: in vivo, 720 h, time 30 day
[18] = MRT (0 to infinity) in rat at 20 mg/kg, po measured for 1 to 24 hrs by LC-MS analysis; format: ADME, organism-based; conditions: in vivo, time 1-24 hrs
MCF7 [19] = assay: Antitumor activity against human MCF7 cells xenografted in nude mouse model assessed as reduction in Ki67 level at 60 mg/kg, po administered daily via gavage for 30 days in presence of ribociclib by IHC analysis; format: functional, organism-based; conditions: time 30.0 day
[20] = Apparent volume of distribution in rat at 5 mg/kg, iv measured for 1 to 24 hrs by LC-MS analysis; format: ADME, organism-based; conditions: in vivo, time 1-24 hrs, read-out: Vz
MCF7 [21] = assay: Antitumor activity against human MCF7 cells xenografted in nude mouse model at 60 mg/kg, po administered daily via gavage for 30 days in presence of ribociclib; format: functional, organism-based; conditions: time 30.0 day
[22] = Toxicity in nude mouse model xenografted with human MCF7 cells assessed as morphological change in kidney at 60 mg/kg, po administered daily via gavage for 30 days by H and E staining based analysis; format: organism-based; conditions: in vivo, 720 h, time 30 day
MCF7 [23] = assay: Induction of endoplasmic reticulum stress effect in human MCF7 cells assessed as change in calnexin level at 10 uM incubated for 24 hrs by immunofluorescence based analysis; format: functional, cell-based
MCF7 [24] = assay: Antitumor activity against human MCF7 cells xenografted in nude mouse model assessed as reduction in PR level at 60 mg/kg, po administered daily via gavage for 30 days in presence of ribociclib by IHC analysis; format: functional, organism-based; conditions: time 30.0 day
[25] = MRT (0 to t) in rat at 20 mg/kg, po measured for 1 to 24 hrs by LC-MS analysis; format: ADME, organism-based; conditions: in vivo, time 1-24 hrs
[26] = Cmax in rat at 5 mg/kg, iv measured for 1 to 24 hrs by LC-MS analysis; format: ADME, organism-based; conditions: in vivo, time 1-24 hrs
MCF7 [27] = assay: Induction of endoplasmic reticulum stress effect in human MCF7 cells assessed as change in CHOP level at 10 uM incubated for 24 hrs by immunofluorescence based analysis; format: functional, cell-based
MCF7 [28] = assay: Induction of endoplasmic reticulum stress effect in human MCF7 cells assessed as change in EIF-2alpha level at 10 uM incubated for 3 to 24 hrs by Western blot analysis; format: functional, cell-based; conditions: time 3-24 hrs
[29] = AUC (0 to t) in rat at 20 mg/kg, po measured for 1 to 24 hrs by LC-MS analysis; format: ADME, organism-based; conditions: in vivo, time 1-24 hrs
MCF7 [30] = assay: Induction of cell cycle arrest at G0/G1 phase in human MCF7 cells at 10 uM incubated for 24 hrs by PI/RNase staining based flow cytometry (reference value: 53.5 +/- 1.96 %); format: functional
[31] = Half life in rat at 20 mg/kg, po measured for 1 to 24 hrs by LC-MS analysis; format: ADME, organism-based; conditions: in vivo, time 1-24 hrs
[32] = Tmax in rat at 20 mg/kg, po measured for 1 to 24 hrs by LC-MS analysis; format: ADME, organism-based; conditions: in vivo, time 1-24 hrs

CCc1ccccc1C(=O)c1cnc2cc(O)ccc2c1Oc1ccc(/C=C/C(=O)O)cc1
Activity (MCF7 [1]): inactive
Activity (MCF7 [2]): Active
Activity (MCF7 [3]): Active
Activity (Uterus): inactive
Tmax [4]: 4.98 min
Activity [5]: Dose-Dependent Effect
MRT inf [6]: 7.56 min
Activity (MCF7 [7]): Active
inhibition (MCF7 [8]): Active
Activity (MCF7 [9]): Active
AUC(0-inf) [10]: 3050 ng·h/mL
inhibition at 20 µM (Ishikawa): 14%
Activity (MCF7 [11]): Active
Activity (MCF7 [12]): Active
Activity (MCF7 [13]): inactive
MRT last [14]: 7.2 min
IC50 (MCF7 [15]): 150 nM
Activity (MCF7 [16]): Active
Activity [17]: Non-Toxic
MRT inf [18]: 2.66 h
Activity (MCF7 [19]): Active
Vd [20]: 2 L/kg
Activity (MCF7 [21]): Active
Activity [22]: Non-Toxic
Activity (MCF7 [23]): Active
Activity (MCF7 [24]): Active
MRT last [25]: 2.19 h
Cmax [26]: 10400 ng/mL
Activity (MCF7 [27]): Active
Activity (MCF7 [28]): Active
AUC(0-t) [29]: 628 ng·h/mL
Activity (MCF7 [30]): 59.7%
half-life [31]: 191 min
Tmax [32]: 15 min
